{
  "source": "paper PMC13242511",
  "about": "“Disrupting Notch signalling by a small molecule inhibiting dihydroorotate dehydrogenase activity” (Scientific Reports, 2026)",
  "tested_on": "Notch signalling",
  "assay": "DHODH inhibitor and uridine rescue experiment (Notch reporter assay)",
  "format": "cell-based",
  "settings": "1 and 10 µM, 24 h",
  "experimental": "HEK293T Notch reporter cells (#A1-11) were grown to 80% confluency, detached and mixed with the indicated compounds and doses with or without uridine (Sigma-Aldrich, cat #U3003). 10,000 cells/well were then seeded into 96-well cell culture plates (ThermoFisher, cat #136102) and incubated for 24 h. DMSO treatment with or without uridine served as control for each treatment. Cells were then subjected to Notch reporter assays, and luciferase signals were recorded on a Varioscan Lux microplate reader (ThermoFisher). Reporter signals from each treatment were normalised to the respective DMSO control, as described above and three independent assays were recorded with at least two technical replicates per treatment.",
  "data": [
    {"smiles": "COc1cccc(CNc2ccc(N3CCCCC3)cc2)c1OCc1cccs1", "note": "[compound C]", "values": [
      {"measurement": "effect on Notch reporter activity after addition of uridine", "setting": "plus 100 µM uridine", "result": "reversed"},
      {"measurement": "Notch reporter assay activity", "setting": "without uridine", "result": "reduced the reporter assay activity"}
    ]}
  ]
}
